Results reported in patent US11168087B2, “Substituted imidazo[1,2-b]pyridazines, substituted imidazo[1,5-b]pyridazines, related compounds, and their use in the treatment of medical disorders” (BIAL—R&D Investments, S.A., priority 2016, dated 2021).
Converted amounts (≈) assume the structure as drawn.

What was measured:
[1] = Compound solubility in water; assay type: physicochemical
[2] = molecular target: T1, glucocerebrosidase (Gcase) (Homo sapiens, UniProt P04062); test: Glucocerebrosidase (Gcase) activation assay, 4-methylumbelliferyl-beta-D-glucopyranoside substrate, with saposin C; assay type: biochemical; settings: 0.25 h; for activation at 0.1 µM: read-out: Percent Gcase Activation 0.1 μM Test Compound; for activation at 1 µM: read-out: Percent Gcase Activation 1 μM Test Compound
T1 construct: micellar solution containing 10 nM GCase and 100 nM saposin C
T1 sequence (P04062 40-536): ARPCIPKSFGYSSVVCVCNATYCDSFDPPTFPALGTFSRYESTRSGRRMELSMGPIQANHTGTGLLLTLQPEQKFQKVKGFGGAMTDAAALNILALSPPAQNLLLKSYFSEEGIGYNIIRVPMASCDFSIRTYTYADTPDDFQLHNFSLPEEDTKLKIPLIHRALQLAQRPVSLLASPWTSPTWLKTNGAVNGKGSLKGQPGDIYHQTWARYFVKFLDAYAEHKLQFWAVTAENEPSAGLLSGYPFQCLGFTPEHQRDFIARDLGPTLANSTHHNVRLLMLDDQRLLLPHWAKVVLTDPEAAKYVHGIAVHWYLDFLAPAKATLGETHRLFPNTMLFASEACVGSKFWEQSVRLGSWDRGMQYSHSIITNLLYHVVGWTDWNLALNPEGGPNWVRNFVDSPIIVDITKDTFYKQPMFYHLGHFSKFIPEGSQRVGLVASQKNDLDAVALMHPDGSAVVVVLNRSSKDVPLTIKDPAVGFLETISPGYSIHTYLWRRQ
Outline: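 Human GCase (10 nM) with 100 nM saposin C in Triton X-100/phosphatidylserine micelles, citrate-phosphate pH 4.7, preincubated with compound 30 min RT; 2 mM 4-MU-β-glucoside (substrate solution) added, 15 min RT, stopped with glycine pH 12.5, fluorescence 365/440 nm. Screened at 1.0 and 0.1 μM; 8-point curves from 5 μM top.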

Compound	solubility [1] [µg/mL]	activation at 0.1 µM [2] [%]	activation at 1 µM [2] [%]
Cc1cc(-c2cccnc2)nc2c(C(=O)NC(C)(C)C3CC3)nsc12	0.7 (≈ 1.99 µM)	< 5	5 to 20
CCCCCCOC1CCC(NC(=O)c2ncc3c(C)cc(C)nn23)CC1 (stereo not shown)	23.1 (≈ 62 µM)	5 to 20	> 20
Cc1cc(-c2cccc(F)c2C#N)nn2c(C(=O)N[C@@H](C)C3CC3)cnc12 [(S)-6-(2-Cyano-3-fluorophenyl)-N-(1-cyclopropylethyl)-8-methylimidazo[1,2-b]pyridazine-3-carboxamide]		> 20	> 20
Cc1cc(N2CCCC(F)(F)C2)nn2c(C(=O)N[C@@H](C3CC3)C(F)(F)F)cnc12		> 20	> 20
C#CC(NC(=O)c1ncc2c(C)cc(-c3cccc(F)c3)nn12)C(F)(F)F (stereo not shown) [2-(3-Fluorophenyl)-4-methyl-N-(1,1,1-trifluorobut-3-yn-2-yl)imidazo[1,5-b]pyridazine-7-carboxamide]		> 20	> 20
Cc1cc(-c2ccc(F)cc2C#N)nn2c(C(=O)NC(C3CC3)C(F)(F)F)cnc12 (stereo not shown)		5 to 20	> 20
Cc1cc(C)c2cnc(C(=O)NC(C)(C)C3CC3)n2n1		< 5	> 20
Cc1cc(C#N)c(-c2cc(C)c3ncc(C(=O)N[C@@H](C)C4CC4)n3n2)o1 [(S)-6-(3-Cyano-5-methylfuran-2-yl)-N-(1-cyclopropylethyl)-8-methylimidazo[1,2-b]pyridazine-3-carboxamide]		> 20	> 20
Cc1cc(C)c2scc(C(=O)NC(C3CC3)C(F)(F)F)c2n1 (stereo not shown)		> 20	> 20
Cc1cc(-c2ccc3ocnc3c2)nn2c(C(=O)NC(C)C(F)(F)F)cnc12 (stereo not shown)		> 20	> 20
Cc1cc(-c2ccc(F)cc2)nn2c(C(=O)N[C@@H](C)C3CC3)ncc12		5 to 20	> 20
Cc1cc(-c2cncc(Cl)c2)nn2c(C(=O)N[C@@H](C3CC3)C(F)(F)F)ncc12 [(S)-2-(5-Chloropyridin-3-yl)-N-(1-cyclopropyl-2,2,2-trifluoroethyl)-4-methylimidazo[1,5-b]pyridazine-7-carboxamide]		5 to 20	> 20
Cc1cc(C)c2ncc(C(=O)NC(C)(C)C3CC3)n2n1		5 to 20	> 20
Cc1cc(-c2cccc3ncoc23)nn2c(C(=O)NC(C)C(F)(F)F)cnc12 (stereo not shown)		< 5	> 20
Cc1cc(-c2ccc3ocnc3c2)nn2c(C(=O)N[C@@H](C)C(F)(F)F)cnc12		> 20	> 20
Cc1cc(-c2ccc(F)cc2C#N)nn2c(C(=O)N[C@@H](C3CC3)C(F)(F)F)ncc12 [(S)-2-(2-Cyano-4-fluorophenyl)-N-(1-cyclopropyl-2,2,2-trifluoroethyl)-4-methylimidazo[1,5-b]pyridazine-7-carboxamide]		5 to 20	> 20
Cc1nc2cc(-c3cc(C)c4ncc(C(=O)NC(C)C(F)(F)F)n4n3)ccc2o1 (stereo not shown)		5 to 20	> 20
Cc1cc(N2CCN(C(C)C)C2=O)nn2c(C(=O)NC(C3CC3)C(F)(F)F)cnc12 (stereo not shown)		5 to 20	> 20
C#Cc1ccc(NC(=O)c2ncc3c(C)cc(C)nn23)cc1		< 5	> 20
Cc1cc(-c2cccc(F)c2)nn2c(C(=O)NC(C)C(F)(F)F)ncc12 (stereo not shown)		5 to 20	> 20
Cc1cc(-c2cc(C)c3ncc(C(=O)N[C@H](C4CC4)C(F)(F)F)n3n2)sn1		> 20	> 20
Cc1cc(-c2ccc(F)cc2)nn2c(C(=O)NC(C3CC3)C(F)(F)F)ncc12 (stereo not shown)		> 20	> 20
Cc1cc(-c2ccc(C#N)o2)nn2c(C(=O)N[C@@H](C3CC3)C(F)(F)F)cnc12		> 20	> 20
Cc1cc(-c2ccccc2C#N)nn2c(C(=O)NC(C3CC3)C(F)(F)F)cnc12 (stereo not shown)		5 to 20	> 20
CCCCCO[C@H]1CC[C@H](NC(=O)c2nsc3c(C)cc(C)nc23)CC1 [5,7-Dimethyl-N-((1R,4R)-4-(pentyloxy)cyclohexyl)isothiazolo[4,5-b]pyridine-3-carboxamide]		> 20	> 20
